The record followed here is PubChem BioAssay (NCI).

Test systems include UACC-62 melanoma; HCT-15 colon; U251 CNS; SR leukemia; SF-295 CNS; M14 melanoma; PC-3 prostate; HOP-62 NSCLC; SK-MEL-28 melanoma; EKVX NSCLC.
Common to all, as to assay: inhibition of tumour cell growth, NCI panel, 48 h

SMILES strings stand for the structures. Where “and” joins values, the source holds several entries; their conditions need not be identical. Equal values may be shown once.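 Five compound concentrations were applied to cells in 96-well plates for 48 hours; endpoints were derived by simple linear interpolation of the resulting dose-response curve. Abbreviation: GI50, concentration required for 50% inhibition of growth. TGI marks complete inhibition of growth.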

Consider `CCNC(=O)O[C@H]1CN[C@H](C#Cc2cc3ncnc(Nc4ccc(OCc5cccc(F)c5)c(Cl)c4)c3s2)C1`, for which the GI50 with UACC-62 melanoma is 17 µM; in the assay on HCT-15 colon, 9.83 µM; with U251 CNS, 9.24 µM; with SR leukemia it was 6.99 µM; with SF-295 CNS it was 8.13 µM; in the assay with M14 melanoma, above 22.6 µM. For the same compound, the GI50 in the assay with PC-3 prostate was 5.93 µM; in the assay with HOP-62 NSCLC, 14.9 µM; in the assay with SK-MEL-28 melanoma it was above 25 µM; with EKVX NSCLC, 0.668 µM. The TGI with UACC-62 melanoma, in the assay on HCT-15 colon, with U251 CNS, with SR leukemia, with SF-295 CNS and in the assay on M14 melanoma was above 25 µM throughout. Moreover, the TGI is above 25 µM in the assay with PC-3 prostate, above 25 µM in the assay on HOP-62 NSCLC, above 25 µM in the assay on SK-MEL-28 melanoma and above 14.8 µM in the assay on EKVX NSCLC.

Consider `O=C1C(=O)c2cccnc2-c2ncccc21`, for which the GI50 was 0.201 µM in the assay with UACC-62 melanoma; 0.185 µM in the assay with HCT-15 colon; 0.131 µM in the assay on U251 CNS; 0.0875 µM in the assay with SR leukemia; 0.295 µM in the assay on SF-295 CNS; 0.159 µM in the assay on M14 melanoma. Besides, the GI50 in the assay with PC-3 prostate is 0.208 µM; with HOP-62 NSCLC, 0.225 µM; in the assay on SK-MEL-28 melanoma it was 0.472 µM; with EKVX NSCLC, 0.322 µM. Further, the TGI stood at 0.514 µM in the assay on UACC-62 melanoma; 1.42 µM in the assay with HCT-15 colon; 0.674 µM in the assay with U251 CNS; 1.08 µM in the assay with SR leukemia; 0.946 µM in the assay with SF-295 CNS; 0.441 µM with M14 melanoma. For the same compound, the TGI in the assay on PC-3 prostate is 1.27 µM; in the assay with HOP-62 NSCLC it was 0.882 µM; in the assay on SK-MEL-28 melanoma, 1.8 µM; in the assay with EKVX NSCLC, 1.29 µM.

On to `C=C1CC2(OC1=O)C(=O)Nc1ccccc12` (stereo not given), for which the GI50 with UACC-62 melanoma was 2.23 µM; in the assay with HCT-15 colon it was 1.51 µM; in the assay on U251 CNS it was 13.1 µM; in the assay with SR leukemia, 1.32 µM; in the assay with SF-295 CNS, 28.9 µM; with M14 melanoma, 2.71 µM. Also, the GI50 with PC-3 prostate was 5.26 µM; with HOP-62 NSCLC, 12.6 µM; in the assay with SK-MEL-28 melanoma it was 1.99 µM; in the assay on EKVX NSCLC it was 13.5 µM. Moreover, the TGI in the assay with UACC-62 melanoma was 6.76 µM; in the assay with HCT-15 colon, 3.69 µM; in the assay with U251 CNS it was 30.5 µM; in the assay with SR leukemia it was 6.03 µM; in the assay with SF-295 CNS it was above 100 µM; in the assay with M14 melanoma, 10 µM. Moreover, the TGI with PC-3 prostate was found to be 18.8 µM; in the assay on HOP-62 NSCLC it was 29.6 µM; with SK-MEL-28 melanoma it was 4.26 µM; in the assay with EKVX NSCLC, 26.7 µM.

In the case of `CC(C)=CC1=C2C3=C(C(=O)C4(O)Oc5c(C)c6c7c(c5OC24C)[C@@H](C)CC[C@@H]7[C@@H](C)C[C@H]6C=C(C)C)C(C)CCC3C(C)C1` (stereo not given in full), the GI50 in the assay with UACC-62 melanoma, in the assay with HCT-15 colon, in the assay with U251 CNS, with SR leukemia, in the assay on SF-295 CNS and with M14 melanoma was above 100 µM in each case. In addition, the GI50 with PC-3 prostate is above 100 µM; in the assay on HOP-62 NSCLC, above 100 µM; in the assay with SK-MEL-28 melanoma it was 8.82 µM; with EKVX NSCLC it was above 100 µM. Besides, the TGI in the assay with UACC-62 melanoma, in the assay with HCT-15 colon, in the assay with U251 CNS, in the assay on SR leukemia, with SF-295 CNS and in the assay on M14 melanoma was above 100 µM throughout. Also, the TGI with PC-3 prostate, with HOP-62 NSCLC, in the assay on SK-MEL-28 melanoma and in the assay on EKVX NSCLC was above 100 µM each time.

On to `COc1cccc(/C=N/C(/N=C/c2cccc(OC)c2O)c2cccc(OC)c2O)c1O`, for which the TGI in the assay on UACC-62 melanoma is 59.8 µM; with HCT-15 colon, above 100 µM; in the assay with U251 CNS, 80.1 µM; in the assay with SR leukemia, 35.1 µM; in the assay on SF-295 CNS, 80 µM; in the assay with M14 melanoma, 48.2 µM. For the same compound, the TGI in the assay with PC-3 prostate was above 100 µM; in the assay on HOP-62 NSCLC, above 100 µM; in the assay on SK-MEL-28 melanoma it was above 100 µM; with EKVX NSCLC, 52 µM.

In the case of `COc1cc2c(cc1OC)C13CCN4CC5CCOC6CC(=O)N2C1C6C5CC43` (stereo not given), the TGI in the assay on UACC-62 melanoma, with HCT-15 colon, in the assay with U251 CNS, in the assay on SR leukemia, in the assay with SF-295 CNS and in the assay on M14 melanoma was above 100 µM throughout. The TGI in the assay on PC-3 prostate, with HOP-62 NSCLC, in the assay on SK-MEL-28 melanoma and in the assay on EKVX NSCLC was above 100 µM in each case.

Regarding `Cc1cn(-c2cc(NC(=O)c3ccc(C)c(Nc4nccc(-c5cccnc5)n4)c3)cc(C(F)(F)F)c2)cn1`, the GI50 is 1.65 µM and 1.09 µM in the assay with UACC-62 melanoma; 3.18 µM and 4.6 µM in the assay with HCT-15 colon; 2.97 µM and 2.47 µM with U251 CNS; 3.06 µM and 2.67 µM in the assay with SR leukemia; 3.16 µM and 2.78 µM in the assay on SF-295 CNS; 1.66 µM and 1.45 µM with M14 melanoma. Also, the GI50 is 3.19 µM and 3.23 µM with PC-3 prostate; > 10 µM and 8.92 µM in the assay with HOP-62 NSCLC; 1.81 µM and 1.4 µM in the assay with SK-MEL-28 melanoma; 6.23 µM and 5.98 µM in the assay on EKVX NSCLC. In addition, the TGI with UACC-62 melanoma was > 10 µM and 9.18 µM; in the assay on HCT-15 colon, above 38.3 µM; in the assay on U251 CNS, > 10 µM and 7.32 µM; in the assay on SR leukemia, > 10 µM and 26.9 µM; in the assay on SF-295 CNS, > 10 µM and 11.3 µM; with M14 melanoma, 5.91 µM and 4.87 µM. Also, the TGI in the assay with PC-3 prostate is above 10 µM; in the assay on HOP-62 NSCLC, > 10 µM and 26.3 µM; in the assay with SK-MEL-28 melanoma it was 5.97 µM and 3.18 µM; in the assay on EKVX NSCLC it was > 10 µM and 26.1 µM.

On to `CN(Cc1cc(C(C)(C)C)cc(Br)c1O)Cc1cc(C(C)(C)C)cc(Br)c1O`, for which the TGI in the assay with UACC-62 melanoma worked out at 12.8 µM; in the assay with HCT-15 colon, 12.1 µM; in the assay with U251 CNS, 8.15 µM; with SR leukemia it was 12.2 µM; in the assay on SF-295 CNS, 14.3 µM; with M14 melanoma it was 14.9 µM. Besides, the TGI came to 9.32 µM in the assay on PC-3 prostate, 15.5 µM with HOP-62 NSCLC, 17.4 µM with SK-MEL-28 melanoma and 12.7 µM in the assay on EKVX NSCLC.
